Values quoted from earlier work in article PMC7953028 (Journal of Pesticide Science, 2021).

What was measured:
[1] = molecular target: DmMet/DmTai complex (Drosophila melanogaster, UniProt O44118)
DmMet/DmTai complex, sequence (O44118 1-716): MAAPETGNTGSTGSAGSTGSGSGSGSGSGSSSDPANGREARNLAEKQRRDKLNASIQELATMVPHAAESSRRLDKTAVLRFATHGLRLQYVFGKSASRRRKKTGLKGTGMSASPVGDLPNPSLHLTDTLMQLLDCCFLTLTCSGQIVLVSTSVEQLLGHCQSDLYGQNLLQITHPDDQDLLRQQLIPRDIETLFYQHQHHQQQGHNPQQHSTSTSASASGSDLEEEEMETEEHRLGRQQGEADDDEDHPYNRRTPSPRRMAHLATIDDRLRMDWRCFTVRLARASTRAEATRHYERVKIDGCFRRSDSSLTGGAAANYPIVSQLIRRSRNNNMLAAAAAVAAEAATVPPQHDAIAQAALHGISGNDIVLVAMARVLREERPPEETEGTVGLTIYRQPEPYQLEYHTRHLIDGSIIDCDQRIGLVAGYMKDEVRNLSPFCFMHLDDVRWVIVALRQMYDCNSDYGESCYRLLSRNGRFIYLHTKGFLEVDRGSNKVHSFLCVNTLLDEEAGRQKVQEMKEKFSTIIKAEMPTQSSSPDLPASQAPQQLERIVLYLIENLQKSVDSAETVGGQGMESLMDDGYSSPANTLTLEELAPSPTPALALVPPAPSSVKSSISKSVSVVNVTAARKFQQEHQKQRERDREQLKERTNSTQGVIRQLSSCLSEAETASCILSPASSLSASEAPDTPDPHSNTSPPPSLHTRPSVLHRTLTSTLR
DmMet/DmTai complex, sequence (Q9VLD9 1-2026 partner): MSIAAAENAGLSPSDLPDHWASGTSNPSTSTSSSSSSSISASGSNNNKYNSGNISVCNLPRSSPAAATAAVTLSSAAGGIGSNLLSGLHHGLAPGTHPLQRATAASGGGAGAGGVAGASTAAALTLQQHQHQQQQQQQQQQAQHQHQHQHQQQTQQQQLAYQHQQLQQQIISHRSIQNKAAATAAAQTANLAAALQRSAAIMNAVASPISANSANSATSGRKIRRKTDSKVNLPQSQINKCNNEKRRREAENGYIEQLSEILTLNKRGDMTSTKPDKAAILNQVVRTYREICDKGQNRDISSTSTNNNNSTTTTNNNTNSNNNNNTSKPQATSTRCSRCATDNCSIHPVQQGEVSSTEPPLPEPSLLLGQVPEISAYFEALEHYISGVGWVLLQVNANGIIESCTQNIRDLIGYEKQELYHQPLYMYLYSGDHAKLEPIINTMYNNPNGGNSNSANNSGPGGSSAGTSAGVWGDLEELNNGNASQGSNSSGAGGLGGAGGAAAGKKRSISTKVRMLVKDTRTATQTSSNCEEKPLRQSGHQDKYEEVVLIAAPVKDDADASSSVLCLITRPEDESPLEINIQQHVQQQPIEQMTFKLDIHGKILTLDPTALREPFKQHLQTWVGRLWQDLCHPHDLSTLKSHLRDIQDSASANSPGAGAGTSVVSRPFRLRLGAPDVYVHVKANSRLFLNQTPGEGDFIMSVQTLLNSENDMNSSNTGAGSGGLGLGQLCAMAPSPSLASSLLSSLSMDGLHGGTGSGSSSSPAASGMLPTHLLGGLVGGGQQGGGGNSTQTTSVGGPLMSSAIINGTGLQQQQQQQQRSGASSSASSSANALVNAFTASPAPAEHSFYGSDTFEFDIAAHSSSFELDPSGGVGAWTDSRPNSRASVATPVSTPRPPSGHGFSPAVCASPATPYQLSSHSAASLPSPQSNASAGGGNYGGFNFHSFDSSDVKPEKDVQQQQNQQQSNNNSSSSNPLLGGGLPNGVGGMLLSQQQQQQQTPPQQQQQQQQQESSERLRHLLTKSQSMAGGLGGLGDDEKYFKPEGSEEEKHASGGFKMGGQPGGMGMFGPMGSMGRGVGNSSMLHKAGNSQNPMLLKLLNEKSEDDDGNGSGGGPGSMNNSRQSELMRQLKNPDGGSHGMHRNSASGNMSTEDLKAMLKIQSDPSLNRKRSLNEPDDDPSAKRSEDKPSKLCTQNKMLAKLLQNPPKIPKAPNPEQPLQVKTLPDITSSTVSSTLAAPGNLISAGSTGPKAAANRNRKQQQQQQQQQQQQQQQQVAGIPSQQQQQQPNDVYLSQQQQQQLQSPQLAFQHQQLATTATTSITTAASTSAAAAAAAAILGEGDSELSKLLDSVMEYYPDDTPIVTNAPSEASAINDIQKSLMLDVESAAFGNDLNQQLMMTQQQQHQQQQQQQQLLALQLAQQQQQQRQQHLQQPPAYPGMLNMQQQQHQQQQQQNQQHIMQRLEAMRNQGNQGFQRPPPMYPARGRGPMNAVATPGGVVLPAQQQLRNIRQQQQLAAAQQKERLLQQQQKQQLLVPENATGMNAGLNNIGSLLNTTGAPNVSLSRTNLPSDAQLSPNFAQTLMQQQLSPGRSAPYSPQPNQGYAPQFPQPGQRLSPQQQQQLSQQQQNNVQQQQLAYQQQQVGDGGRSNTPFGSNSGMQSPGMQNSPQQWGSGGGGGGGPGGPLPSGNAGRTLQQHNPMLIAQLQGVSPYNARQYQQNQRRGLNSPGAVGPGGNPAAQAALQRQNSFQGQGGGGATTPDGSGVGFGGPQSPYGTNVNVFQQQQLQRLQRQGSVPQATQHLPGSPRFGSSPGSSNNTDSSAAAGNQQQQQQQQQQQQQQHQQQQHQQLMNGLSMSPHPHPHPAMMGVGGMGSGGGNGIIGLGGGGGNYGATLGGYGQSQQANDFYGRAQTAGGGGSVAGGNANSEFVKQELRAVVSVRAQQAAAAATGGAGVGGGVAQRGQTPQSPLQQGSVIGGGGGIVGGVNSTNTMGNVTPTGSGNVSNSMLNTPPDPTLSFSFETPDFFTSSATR

Row | activity in reporter system relative to natural JHs [1] | SMILES | log P
1 |  | COC(C)(C)CCC[C@H](C)C/C=C/C(C)=C/C(=O)OC(C)C (racemic) [methoprene] | 5.00
2 | outperformed natural JHs | c1ccc(Oc2ccc(OCCOc3nccs3)cc2)cc1 [Compound 1, 2-[2-(4-phenoxyphenoxy)ethoxy]thiazole] | 
3 | outperformed natural JHs | C(#Cc1ccccn1)COc1ccc(Oc2ccccc2)cc1 [Compound 2, 2-[3-(4-phenoxyphenoxy)-1-propyn-1-yl)pyridine] | 
